In data set [1] the target is T1, FAP (FAP-positive HT-1080-FAP cells) (Homo sapiens, UniProt Q12884).
T1 construct: expressed in transfected cells; host or cells: HT-1080 human fibrosarcoma cells, stably transfected (HT-1080-FAP)
T1 sequence (Q12884 1-760): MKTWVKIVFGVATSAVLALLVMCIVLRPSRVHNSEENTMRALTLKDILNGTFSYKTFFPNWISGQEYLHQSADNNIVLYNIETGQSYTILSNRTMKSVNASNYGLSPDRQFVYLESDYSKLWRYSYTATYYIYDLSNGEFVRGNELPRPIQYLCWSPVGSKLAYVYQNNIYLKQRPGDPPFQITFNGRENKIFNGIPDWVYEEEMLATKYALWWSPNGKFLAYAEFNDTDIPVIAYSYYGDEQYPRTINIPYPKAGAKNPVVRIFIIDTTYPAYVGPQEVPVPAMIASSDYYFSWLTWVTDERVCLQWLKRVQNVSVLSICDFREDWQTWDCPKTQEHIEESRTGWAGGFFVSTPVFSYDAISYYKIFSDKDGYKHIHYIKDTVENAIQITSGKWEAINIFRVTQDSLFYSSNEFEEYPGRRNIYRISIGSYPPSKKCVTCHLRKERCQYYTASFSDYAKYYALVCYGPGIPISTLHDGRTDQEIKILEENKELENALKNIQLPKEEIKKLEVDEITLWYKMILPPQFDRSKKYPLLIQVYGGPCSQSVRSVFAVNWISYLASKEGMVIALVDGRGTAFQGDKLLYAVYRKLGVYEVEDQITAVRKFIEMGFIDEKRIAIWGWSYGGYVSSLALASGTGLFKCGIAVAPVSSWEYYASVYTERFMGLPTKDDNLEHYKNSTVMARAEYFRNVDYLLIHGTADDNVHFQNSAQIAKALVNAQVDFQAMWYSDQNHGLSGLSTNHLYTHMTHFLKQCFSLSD
Kind of data set: Competitive cell-binding assay against ^68Ga-FAPI-46. As to conditions: competition with ^68Ga-FAPI-46, 60 min, read-out: 50% inhibitory concentration. Here is the method:
A human fibrosarcoma cell line was stably transfected with FAP (HT-1080-FAP) and cultured, as previously described ([15]). A human glioblastoma cell line (U87MG, from the Chinese National Infrastructure of Cell Line Resource) was cultured in Dulbecco modified Eagle medium (Thermo Fischer Scientific) supplemented with 10% fetal bovine serum (Thermo Fisher Scientific). HT-1080-FAP cells were seeded in 24-well plates using RPMI 1640 medium with 10% fetal bovine serum, and the medium was replaced with fresh medium without fetal bovine serum when the cells reached 80%–90% density. ^68Ga-FAPI-46, ^68Ga-DOTA-2P(FAPI)2, ^68Ga-DOTA-4P(FAPI)4, or ^68Ga-DOTA-4P(FAPI)4 with 11.3 nmol of unlabeled FAPI-46 (for the blocking experiment) were added to the 24-well plates and incubated for 60, 90, and 120 min. For the competitive cell-binding assay, a gradient concentration (5.6 × 10^−13 to 10^−5 M) of FAPI-46, DOTA-2P(FAPI)2, or DOTA-4P(FAPI)4 was added to the cells and incubated with ^68Ga-FAPI-46 for 60 min. […] The radioactivity (counts per minute) was determined with a γ-counter (WIZARD^2 2480; PerkinElmer Inc.). […] The 50% inhibitory concentrations were determined by fitting a nonlinear regression model to the data using Prism software, version 8 (GraphPad Software Inc.).

Data set [2] is described as follows: In vitro stability in phosphate-buffered saline and fetal bovine serum (radio-HPLC). It counts as in vitro ADME. As to conditions: 4 h incubation in phosphate-buffered saline and fetal bovine serum.
In a further data set the test system is HT-1080-FAP cells. Nature of the data set: Cell uptake and blocking experiment. In kind it is cell-based, human. The note with it: 120 min. How it is done:
A human fibrosarcoma cell line was stably transfected with FAP (HT-1080-FAP) and cultured, as previously described ([15]). A human glioblastoma cell line (U87MG, from the Chinese National Infrastructure of Cell Line Resource) was cultured in Dulbecco modified Eagle medium (Thermo Fischer Scientific) supplemented with 10% fetal bovine serum (Thermo Fisher Scientific). HT-1080-FAP cells were seeded in 24-well plates using RPMI 1640 medium with 10% fetal bovine serum, and the medium was replaced with fresh medium without fetal bovine serum when the cells reached 80%–90% density. ^68Ga-FAPI-46, ^68Ga-DOTA-2P(FAPI)2, ^68Ga-DOTA-4P(FAPI)4, or ^68Ga-DOTA-4P(FAPI)4 with 11.3 nmol of unlabeled FAPI-46 (for the blocking experiment) were added to the 24-well plates and incubated for 60, 90, and 120 min. For the competitive cell-binding assay, a gradient concentration (5.6 × 10^−13 to 10^−5 M) of FAPI-46, DOTA-2P(FAPI)2, or DOTA-4P(FAPI)4 was added to the cells and incubated with ^68Ga-FAPI-46 for 60 min. Similarly, a gradient concentration (5.4 × 10^−13 to 10^−5 M) of NOTA-2P(FAPI)2 or NOTA-4P(FAPI)4 was added to the cells and incubated with ^68Ga-FAPI-46 for 60 min. After each step, the cells were washed twice with phosphate-buffered saline (1 mL) and lysed with 1 M NaOH (0.5 mL). The radioactivity (counts per minute) was determined with a γ-counter (WIZARD^2 2480; PerkinElmer Inc.). All experiments were independently repeated 3 times. The 50% inhibitory concentrations were determined by fitting a nonlinear regression model to the data using Prism software, version 8 (GraphPad Software Inc.).

The test system of the next data set is HT-1080-FAP tumors. Kind of data set: Small-animal PET in HT-1080-FAP tumor-bearing mice. It counts as in vivo. Here is the method: (§1) All animal experimental procedures were approved by the Animal Care and Ethics Committee of Xiamen University and performed in accordance with the Guidelines for the Care and Use of Animals of the Xiamen University Laboratory Animal Center. For in vivo experiments, 6-wk-old BALB/c nude mice (Beijing Vital River Laboratory Animal Technology Co., Ltd.) were subcutaneously inoculated with HT-1080-FAP or U87 cells (5 × 10^6 in 100 μL of phosphate-buffered saline) in the right shoulder.
(§2) Dynamic PET, static PET (with or without competition), and SPECT scans with radiolabeled monomeric, dimeric, and tetrameric FAPIs were performed on HT-1080-FAP tumor–bearing mice for pharmacokinetic evaluation. Additionally, static PET with ^68Ga-labeled monomeric, dimeric, and tetrameric FAPIs was performed and compared in U87MG tumor–bearing mice.
Approximately 7.4 MBq of ^68Ga-DOTA-4P(FAPI)4 was intravenously injected into HT-1080-FAP tumor–bearing mice (n = 3) for the 60-min dynamic PET. For multiple-time-point static PET (0.5, 1, 2, and 4 h after injection), 7.4 MBq of ^68Ga-FAPI-46, ^68Ga-DOTA-2P(FAPI)2, or ^68Ga-DOTA-4P(FAPI)4 were injected into HT-1080-FAP and U87MG tumor–bearing mice (3/group). For longer-term observation, HT-1080-FAP tumor–bearing mice were intravenously injected with 7.4 MBq of ^64Cu-NOTA-2P(FAPI)2 or ^64Cu-NOTA-4P(FAPI)4 (3/group). For the in vivo blocking experiment, PET imaging was performed 1 h after the simultaneous administration of 30 nmol of unlabeled FAPI-46 and 7.4 MBq of ^68Ga-DOTA-4P(FAPI)4.

Another data set deals with U87MG tumors. Nature of the data set: Small-animal static PET in U87MG tumor-bearing mice. It counts as in vivo. Here is the method:
as §1, §2
Approximately 7.4 MBq of ^68Ga-DOTA-4P(FAPI)4 was intravenously injected into HT-1080-FAP tumor–bearing mice (n = 3) for the 60-min dynamic PET. For multiple-time-point static PET (0.5, 1, 2, and 4 h after injection), 7.4 MBq of ^68Ga-FAPI-46, ^68Ga-DOTA-2P(FAPI)2, or ^68Ga-DOTA-4P(FAPI)4 were injected into HT-1080-FAP and U87MG tumor–bearing mice (3/group). For longer-term observation, HT-1080-FAP tumor–bearing mice were intravenously injected with 7.4 MBq of ^64Cu-NOTA-2P(FAPI)2 or ^64Cu-NOTA-4P(FAPI)4 (3/group). […]

Consider `CN(CCCN1CCN(C(=O)COCCOCCOCCNC(=O)CCC(=O)NCCCC[C@H](NC(=O)CCC(=O)NCCOCCOCCOCC(=O)N2CCN(CCCN(C)c3ccc4nccc(C(=O)NCC(=O)N5CC(F)(F)C[C@H]5C#N)c4c3)CC2)C(=O)NCCCC[C@H](NC(=O)[C@H](CCCCNC(=O)CN2CCN(CC(=O)O)CCN(CC(=O)O)CCN(CC(=O)O)CC2)NC(=O)CCC(=O)NCCOCCOCCOCC(=O)N2CCN(CCCN(C)c3ccc4nccc(C(=O)NCC(=O)N5CC(F)(F)C[C@H]5C#N)c4c3)CC2)C(=O)NCCOCCOCCOCC(=O)N2CCN(CCCN(C)c3ccc4nccc(C(=O)NCC(=O)N5CC(F)(F)C[C@H]5C#N)c4c3)CC2)CC1)c1ccc2nccc(C(=O)NCC(=O)N3CC(F)(F)C[C@H]3C#N)c2c1` [DOTA-4P(FAPI)4], for which the IC50 in data set [1] turned out to be 15.6 nM.
Still for that read-out and setting: then `CN(CCCN1CCN(C(=O)CN2CCN(CC(=O)O)CCN(CC(=O)O)CCN(CC(=O)O)CC2)CC1)c1ccc2nccc(C(=O)NCC(=O)N3CC(F)(F)C[C@H]3C#N)c2c1` [FAPI-46, reference compound], with 11.4 nM.
Take `CN(CCCN1CCN(C(=O)COCCOCCOCCNC(=O)CCC(=O)NCCCC[C@H](NC(=O)CCC(=O)NCCOCCOCCOCC(=O)N2CCN(CCCN(C)c3ccc4nccc(C(=O)NCC(=O)N5CC(F)(F)C[C@H]5C#N)c4c3)CC2)C(=O)NCCCC[C@H](NC(=O)[C@H](CCCCNC(=O)CN2CCN(CC(=O)[O-])CCN(CC(=O)[O-])CCN(CC(=O)[O-])CC2)NC(=O)CCC(=O)NCCOCCOCCOCC(=O)N2CCN(CCCN(C)c3ccc4nccc(C(=O)NCC(=O)N5CC(F)(F)C[C@H]5C#N)c4c3)CC2)C(=O)NCCOCCOCCOCC(=O)N2CCN(CCCN(C)c3ccc4nccc(C(=O)NCC(=O)N5CC(F)(F)C[C@H]5C#N)c4c3)CC2)CC1)c1ccc2nccc(C(=O)NCC(=O)N3CC(F)(F)C[C@H]3C#N)c2c1.[68Ga+3]` [^68Ga-DOTA-4P(FAPI)4]: the results for the “in vitro stability (demetallation / free radioactivity)” value in data set [2] and in data set [2] (listed as 68Ga-DOTA-4P[FAPI]4) were “highly stable” and “neither significant demetallation nor free radioactivity was observed”, respectively. Besides, in the data set with HT-1080-FAP cells, the cell uptake is recorded as 57.98% ± 0.27%. Moreover, the “reduction of cell uptake by blocking” value with HT-1080-FAP cells (unlabeled FAPI-46) was 97%. Besides, in the data set with HT-1080-FAP cells (with 11.3 nmol unlabeled FAPI-46), the “cell uptake with blocking” value is listed as 1.79% ± 0.97%. In addition, the elimination route entry in the data set on HT-1080-FAP tumors (HT-1080-FAP tumor-bearing mice, PET) is “eliminated predominantly through the kidneys and bladder”. For the same compound, the “reduction in tumor uptake by blocking” value in the data set on HT-1080-FAP tumors (HT-1080-FAP tumors, 1 h after injection, unlabeled FAPI-46) is given as 92%. Further, the “tumor uptake SUVmean without blocking” value in the data set with HT-1080-FAP tumors (HT-1080-FAP tumors, PET, 1 h after injection) was determined as 1.87 ± 0.08. Further, the “tumor uptake SUVmean with blocking” value with HT-1080-FAP tumors (HT-1080-FAP tumors, PET, 1 h after injection, coinjection of 30 nmol unlabeled FAPI-46) is recorded as 0.16 ± 0.03. The “tumor uptake SUVmean” value turned out to be 1.99 ± 0.09 in the data set on HT-1080-FAP tumors (HT-1080-FAP tumors, PET, 4 h after injection) and 0.72 ± 0.02 with U87MG tumors (PET, 1 h after injection). The “course of tumor uptake over time” value in the data set with HT-1080-FAP tumors (HT-1080-FAP tumors, static PET up to 4 h after injection) was “tumor uptake remained constant up to 4 h after injection”. In addition, in the data set on U87MG tumors (PET 0.5-4 h after injection), the washout from tumor entry was “minimal”.
